From PMC11720106, “Synthesis of Pyrazole-Based Inhibitors of the Bacterial Enzyme N-Succinyl-L,L-2,6-Diaminopimelic Acid Desuccinylase (DapE) as Potential Antibiotics” (International Journal of Molecular Sciences, 2024)
Values joined by “and” are separate entries in the source; they are usually repeats but may differ in a detail not shown here. Equal entries are not always repeated. Blank lines part the entries; values can stand above or below the compound they belong to.

What was measured:
HiDapE [1] = target: T1, HiDapE (Haemophilus influenzae, UniProt P44514); assay: Discontinuous ninhydrin-based HiDapE inhibition assay; type: biochemical; conditions: 8 nM HiDapE, 2 mM N6-methyl-L,L-SDAP; for IC50: 5–200 μM inhibitor; for inhibition at 100 µM: pH 7.5, 100 μM inhibitor
Protocol: Inhibitory Assay Protocol: A discontinuous inhibition assay was performed utilizing a Techne PCR Thermal Cycler System. The volume of each component was adjusted to fit a total reaction volume of 100 μL. The final potential inhibitor concentration was 100 μM for pyrazoles 7a–7r for screening experiments or 5–200 μM for IC50 experiments. All potential inhibitors were dissolved in neat dimethylsulfoxide (DMSO), and the pre-assay concentrations were adjusted to give a final concentration of 5% DMSO in the assay. The final HiDapE concentration was 8 nM. To a 50 mM HEPES (pH 7.5) buffered solution at 30 °C was added the selected inhibitor followed by HiDapE and incubated for 10 min. N^6-Methyl-L,L-SDAP (2 mM) was added, and the mixture was allowed to react for 10 min, followed by heating at 100 °C for 1 min and then cooled to 0 °C for 1 min. A 2% ninhydrin solution (100 μL) was added, and the mixture was mixed well by rapid pipetting while cooled at 0 °C. The reaction was then heated at 80 °C for 15 min. The absorbance of an 80 μL aliquot was recorded at 570 nm on a BioTek Synergy 2 microplate reader (Biotek Instruments, Winooski, VT, USA). All inhibition assays were performed in triplicate. The data were then exported and analyzed using Prism (version 10.4.1, GraphPad Prism, Boston, MA, USA).

HiDapE [2] = target: T1, HiDapE; assay: Discontinuous kinetic competition assay with HiDapE; type: biochemical
Protocol: We performed kinetic competition assays to investigate and confirm the binding mode of the pyrazole inhibitors. […] The velocity of the HiDapE enzyme was measured with different concentrations of substrate from 0 to 100 μM, and the plot is shown in Figure 2. After running the AICc statistical analysis to compare noncompetitive and competitive models, it was determined that a competitive binding mode is over 100 times more likely than noncompetitive binding with a 99.2% probability.
Kinetic assay Protocol: A discontinuous kinetic assay was performed utilizing a Techne PCR Thermal Cycler System. The volume of each component was adjusted to fit a total reaction volume of 100 μL. The final potential inhibitor concentration was 0, 20, 40, 60, and 100 μM for pyrazole 7r, where the inhibitor was dissolved in dimethylsulfoxide (DMSO), and the pre-assay concentrations were adjusted to give a final concentration of 5% DMSO in the assay. The in-assay HiDapE concentration was 8 nM. To a 50 mM HEPES (pH 7.5) buffered solution at 30 °C was added the selected inhibitor followed by HiDapE and incubated for 10 min. N^6-Methyl-L,L-SDAP at varied concentrations (0–8 mM) were added, and the mixture was allowed to react for 10 min, followed by heating at 100 °C for 1 min and then cooled to 0 °C for 1 min. A 2% ninhydrin solution (50 μL) was added, and the mixture was mixed well by rapid pipetting while cooled at 0 °C. The reaction was then heated at 80 °C for 15 min. The absorbance of an 80 μL aliquot was recorded at 570 nm on a BioTek Synergy 2 microplate reader. All concentrations were performed in triplicate. The data were then exported and analyzed using Prism using a non-linear regression Michaelis–Menten equation and using AICc statistical analysis to determine which inhibitory binding mode was preferred.

HiDapE [3] = target: T1, HiDapE; assay: Thermal shift assay (SYPRO Orange); type: binding; conditions: for Tm1 (HiDapE): 200 nM enzyme, 10X dye
Protocol: A thermal shift assay was conducted to observe changes in the thermal stability of DapE under various concentrations of the inhibitor (R)-7q, as summarized in Table 2. These studies were conducted on a Step One Real-Time PCR System^TM (Applied Biosystems, Waltham, MA, USA) and associated QuantStudio software (Version 7) through the fluorescence of the SYPRO Orange dye (Fisher Scientific, Waltham, MA, USA) during protein denaturation. We also used the thermal shift assay results to calculate the Ki value of pyrazole (R)-7q. […] Additionally, we observed a subsequent Tm2 at 78.0 °C involving a destabilization of the enzyme, as shown by the approximate −3 °C negative shift in melt temperature as the inhibitor increases in concentration, indicating at this elevated temperature that the inhibitor is binding to primarily the molten globule state. We have previously observed the second melt temperature with the DapE enzyme.
Thermal Shift Assay Protocol: Thermal shift studies were conducted on a Step One Real-Time PCR System and the associated QuantStudio software. Protein denaturation was measured by detecting the change in fluorescence of the SYPRO Orange dye. HiDapE was used at a final concentration of 200 nM, and SYPRO Orange was used at a final concentration of 10×. The experiment was carried out in 10 μL triplicates in 50 mM HEPES buffer at pH 7.5 in nanopure water, and the inhibitor concentrations were selected based on the half-maximal inhibitory concentration (IC50) values of the inhibitor. Sample solutions were dispensed into a 96-well optical reaction plate (Thermo Fisher Scientific, Kalamazoo, MI, USA), and the plate was sealed with an optical PCR plate sheet (Thermo Fisher Scientific, Kalamazoo, MI, USA). The assay was run according to Bhayani. Melting curves were obtained from the negative derivative and exported from the instrument to Microsoft Excel (Version 2402). The negative first derivatives of the melting curves were differentiated into the […]. Tm values were plotted against the log [concentration], and the Ki values were calculated using a derived Van’t Hoff equation according to Bhayani

T1 sequence (P44514 whole entry): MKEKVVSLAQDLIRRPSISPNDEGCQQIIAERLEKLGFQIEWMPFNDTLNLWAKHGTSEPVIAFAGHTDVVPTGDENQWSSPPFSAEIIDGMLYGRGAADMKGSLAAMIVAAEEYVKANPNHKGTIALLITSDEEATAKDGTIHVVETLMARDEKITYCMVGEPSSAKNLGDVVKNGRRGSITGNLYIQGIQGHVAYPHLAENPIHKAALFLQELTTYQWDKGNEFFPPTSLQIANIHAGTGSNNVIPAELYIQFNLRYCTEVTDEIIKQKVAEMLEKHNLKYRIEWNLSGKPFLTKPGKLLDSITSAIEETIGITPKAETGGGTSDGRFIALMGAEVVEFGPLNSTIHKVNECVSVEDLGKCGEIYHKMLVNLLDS

SMILES: Cc1cc(SCC(=O)Nc2nccs2)n(-c2ccccc2)n1 [Compound 7a, 2-((3-Methyl-1-phenyl-1H-pyrazol-5-yl)thio)-N-(thiazol-2-yl)acetamide]
IC50 (HiDapE [1]; pH 7.5): 22.4 µM
inhibition at 100 µM (HiDapE [1]; triplicate): 95.2 ± 0.6%

SMILES: Cc1cc(SCC(=O)Nc2ccon2)n(-c2ccccc2)n1 [Compound 7b, N-(Isoxazol-3-yl)-2-((3-methyl-1-phenyl-1H-pyrazol-5-yl)thio)acetamide]
inhibition at 100 µM (HiDapE [1]; triplicate): 20.3 ± 3.6%

SMILES: Cc1cc(SCC(=O)Nc2ccccc2)n(-c2ccccc2)n1 [Compound 7c, 2-((3-Methyl-1-phenyl-1H-pyrazol-5-yl)thio)-N-phenylacetamide]
inhibition at 100 µM (HiDapE [1]; triplicate): 80.5 ± 3%

SMILES: Cc1cc(SCC(=O)Nc2ccccn2)n(-c2ccccc2)n1 [Compound 7d, 2-((3-Methyl-1-phenyl-1H-pyrazol-5-yl)thio)-N-(pyridine-2-yl)acetamide]
IC50 (HiDapE [1]; pH 7.5): 17.9 µM
inhibition at 100 µM (HiDapE [1]; triplicate): 85.7 ± 1.2%

SMILES: Cc1ccc(NC(=O)CSc2cc(C)nn2-c2ccccc2)nc1 [Compound 7e, 2-((3-Methyl-1-phenyl-1H-pyrazol-5-yl)thio)-N-(5-methylpyridin-2-yl)acetamide]
inhibition at 100 µM (HiDapE [1]; triplicate): 64.3 ± 5.5%

SMILES: Cc1cc(SCC(=O)Nc2ccc(Cl)cn2)n(-c2ccccc2)n1 [Compound 7f, N-(5-Chloropyridin-2-yl)-2-((3-methyl-1-phenyl-1H-pyrazol-5-yl)thio)acetamide]
inhibition at 100 µM (HiDapE [1]; triplicate): 54.2 ± 0.3%

SMILES: Cc1cc(SCC(=O)Nc2ncccn2)n(-c2ccccc2)n1 [Compound 7g, 2-((3-Methyl-1-phenyl-1H-pyrazol-5-yl)thio)-N-(pyrimidin-2-yl)acetamide]
inhibition at 100 µM (HiDapE [1]; triplicate): 32.4 ± 3.4%

More lines, now with the values ahead:

IC50 (HiDapE [1]; pH 7.5): 20.2 µM
inhibition at 100 µM (HiDapE [1]; triplicate): 96.2%
SMILES: Cc1cc(SCC(=O)Nc2cnccn2)n(-c2ccccc2)n1 [Compound 7h, 2-((3-Methyl-1-phenyl-1H-pyrazol-5-yl)thio)-N-(pyrazin-2-yl)acetamide]

inhibition at 100 µM (HiDapE [1]; triplicate): 47.4 ± 7.2%
SMILES: CCN(CC)C(=O)CSc1cc(C)nn1-c1ccccc1 [Compound 7j, N,N-Diethyl-2-((3-methyl-1-phenyl-1H-pyrazol-5-yl)thio)acetamide]

inhibition at 100 µM (HiDapE [1]; triplicate): 36.9 ± 2.7%
SMILES: Cc1cc(SCC(=O)Nc2nc3ccccc3[nH]2)n(-c2ccccc2)n1 [Compound 7k, N-(1H-Benzo[d]imidazol-2-yl)-2-((3-methyl-1-phenyl-1H-pyrazol-5-yl)thio)acetamide]

inhibition at 100 µM (HiDapE [1]; triplicate): 28 ± 1.8%
SMILES: Cc1cc(SC(C)C(=O)Nc2nccs2)n(-c2ccccc2)n1 (centres unmarked) [Compound 7l, 2-((3-Methyl-1-phenyl-1H-pyrazol-5-yl)thio)-N-(thiazol-2-yl)propanamide]

inhibition at 100 µM (HiDapE [1]; triplicate): 19.5 ± 0.1%
SMILES: Cc1cc(SC(C)C(=O)Nc2ccon2)n(-c2ccccc2)n1 (centres unmarked) [Compound 7m, N-(Isoxazol-3-yl)-2-((3-methyl-1-phenyl-1H-pyrazol-5-yl)thio)propanamide]

inhibition at 100 µM (HiDapE [1]; triplicate): 79.4 ± 3.6%
SMILES: Cc1cc(SC(C)C(=O)Nc2ccccc2)n(-c2ccccc2)n1 (centres unmarked) [Compound 7n, 2-((3-Methyl-1-phenyl-1H-pyrazol-5-yl)thio)-N-phenylpropanamide]

inhibition at 100 µM (HiDapE [1]; triplicate): 63.2 ± 1.8%
SMILES: Cc1cc(SC(C)C(=O)NCc2ccccc2)n(-c2ccccc2)n1 (centres unmarked) [Compound 7o, N-Benzyl-2-((3-methyl-1-phenyl-1H-pyrazol-5-yl)thio)propanamide]

IC50 (HiDapE [1]; pH 7.5): 35.6 µM and 35.7 µM
inhibition at 100 µM (HiDapE [1]; triplicate): 97.4 ± 2%
SMILES: Cc1cc(SC(C)C(=O)Nc2ccccn2)n(-c2ccccc2)n1 (centres unmarked) [Compound 7p, 2-((3-Methyl-1-phenyl-1H-pyrazol-5-yl)thio)-N-(pyridine-2-yl)propanamide]

% Inhibition at 100 μM (HiDapE [1]; 100 μM inhibitor, pH 7.5, triplicate): 99.1 ± 1.6%
IC50 (HiDapE [1]; pH 7.5): 18.8 µM
inhibition at 100 µM (HiDapE [1]; triplicate): 99%
binding mode (mode of inhibition) (HiDapE [2]; AICc comparison of competitive and noncompetitive models): competitive
likelihood of competitive over noncompetitive binding (HiDapE [2]; AICc statistical analysis): over 100 times
probability of competitive binding mode (HiDapE [2]; AICc statistical analysis): 99.2%
Tm1 (HiDapE) (HiDapE [3]; 1 μM inhibitor): 50.8 +/− 0.6 °C
Tm1 (HiDapE) (HiDapE [3]; 5 μM inhibitor): 50.1 +/− 0.1 °C
Tm1 (HiDapE) (HiDapE [3]; 10 μM inhibitor): 50.2 +/− 0.1 °C
Tm1 (HiDapE) (HiDapE [3]; 20 μM inhibitor): 52.7 +/− 0.3 °C
Tm1 (HiDapE) (HiDapE [3]; 40 μM inhibitor): 55.7 +/− 0.3 °C
Tm1 (HiDapE) (HiDapE [3]; 60 μM inhibitor): 60.6 +/− 0.7 °C
Tm1 (HiDapE) (HiDapE [3]; 80 μM inhibitor): 61.3 +/− 0.5 °C
Tm1 (HiDapE) (HiDapE [3]; 100 μM inhibitor): 63.1 +/− 0.2 °C
Tm (HiDapE [3]; as stated in the abstract): 50.2 °C
Ki (HiDapE [3]; calculated from positive melt temperature shift at Tm1, Van't Hoff equation): 17.3 ± 2.8 µM
shift in melt temperature at Tm2 (HiDapE [3]; negative shift as the inhibitor increases in concentration, Tm2 78.0 °C): ~−3 °C
shift in melt temperature at Tm1 (HiDapE [3]; positive shift as the inhibitor increases in concentration, Tm1 50.2 °C): +13 °C
SMILES: Cc1cc(S[C@H](C)C(=O)Nc2ccccn2)n(-c2ccccc2)n1 [Compound 7q, (R)-2-((3-Methyl-1-phenyl-1H-pyrazol-5-yl)thio)-N-(pyridine-2-yl)propanamide]

inhibition at 100 µM (HiDapE [1]; triplicate): 14.6 ± 9.5%
SMILES: Cc1cc(S[C@@H](C)C(=O)Nc2ccccn2)n(-c2ccccc2)n1 [Compound 7r, (S)-2-((3-Methyl-1-phenyl-1H-pyrazol-5-yl)thio)-N-(pyridine-2-yl)propanamide]
